Earlier results in patent publication US9615750B2, “Methods and compositions for carrier agents and clearing agents used in optoacoustic imaging systems” (SENO MEDICAL INSTRUMENTS, INC., priority 2012, dated 2017).

Settings: for Solubility: in words, solvents as named

| Molecule | Solubility in water | Solubility |
| --- | --- | --- |
| NC(N)=O [Urea] | > 100 g/100 ml) | – |
| Keratan Sulfate | – | Water Soluble |
| Chondroitin Sulfate | – | Water Soluble |
| Heparin [reference compound] | – | Water Soluble |
| CN1CCCN(C)C1=O [Cyclic Urea] | – | Soluble in water |
| Polyoxyethylene (20) sorbitan [TWEEN ® 20] | – | Insoluble in Mineral Oil. |
| OCc1ccccc1 [Benzyl alcohol] | soluble 4 g/100 ml | – |
